Earlier results, collected in patent US9475888B2, “Non anti-coagulative glycosaminoglycans comprising repeating disaccharide unit and their medical use” (DILAFOR AB, priority 2011, dated 2016).

Assays:
[1] = species not specified
uterus = conditions: Acta Obstetricia et Gynecologica, 2010; 89:147-150
protracted labor = conditions: women receiving prophylaxis for deep venous thrombosis

Row | Substance | corresponding bioavailability (subcutaneous) [1] | contractility of the uterus (uterus) | protracted labor (protracted labor)
1 | Heparin | about 10% | – | –
2 | dalteparin | – | increase | decrease
